Here are results for three compounds from ChEMBL document CHEMBL5724806, “Unraveling interindividual differences and functional consequences of gut microbial metabolism of immunosuppressants” (2024).

What all share (type): ADME
The nature of data set [1]: The drug is tested on Alloscardovia omnicolens strain: DSM21503 for biotransformation under microaerobic condition. The drug concentrations were measured over 6 timepoints collected between 0 and 12 hours of incubation by liquid-chromatography-coupled mass spectrometry (LC–MS). Also on record: dose 5 uM, timepoint 0, 1.5, 3, 6, 9, 12 hours. Conditions: 5 µM.
Data set [2] can be described thus: The drug is tested on Bifidobacterium longum strain: DSM20088 for biotransformation under anaerobic condition. The drug concentrations were measured over 6 timepoints collected between 0 and 12 hours of incubation by liquid-chromatography-coupled mass spectrometry (LC–MS). Also on record: dose 5 uM, timepoint 0, 1.5, 3, 6, 9, 12 hours. Conditions: 5 µM.
A short description of data set [3]: The drug is tested on Bacteroides uniformis strain: DSM6597 for biotransformation under anaerobic condition. The drug concentrations were measured over 6 timepoints collected between 0 and 12 hours of incubation by liquid-chromatography-coupled mass spectrometry (LC–MS). More on the design: dose 5 uM, timepoint 0, 1.5, 3, 6, 9, 12 hours. Conditions: 5 µM.
A short description of data set [4]: The drug is tested on Bacteroides fragilis strain: DSM2151 for biotransformation under anaerobic condition. The drug concentrations were measured over 6 timepoints collected between 0 and 12 hours of incubation by liquid-chromatography-coupled mass spectrometry (LC–MS). More on the design: dose 5 uM, timepoint 0, 1.5, 3, 6, 9, 12 hours. Conditions: 5 µM.
A short description of data set [5]: The drug is tested on Coprococcus comes strain: ATCC27758 for biotransformation under anaerobic condition. The drug concentrations were measured over 6 timepoints collected between 0 and 12 hours of incubation by liquid-chromatography-coupled mass spectrometry (LC–MS). Also on record: dose 5 uM, timepoint 0, 1.5, 3, 6, 9, 12 hours. Conditions: 5 µM.
Data set [6] is described as follows: The drug is tested on Lactobacillus ruminis strain: ATCC25644 for biotransformation under anaerobic condition. The drug concentrations were measured over 6 timepoints collected between 0 and 12 hours of incubation by liquid-chromatography-coupled mass spectrometry (LC–MS). More on the design: dose 5 uM, timepoint 0, 1.5, 3, 6, 9, 12 hours. The following applies: ligilactobacillus ruminis, 5 µM.

Data set [7] can be described thus: The drug is tested on Enterococcus faecalis strain: ATCC29212 for biotransformation under microaerobic condition. The drug concentrations were measured over 6 timepoints collected between 0 and 12 hours of incubation by liquid-chromatography-coupled mass spectrometry (LC–MS). More on the design: dose 5 uM, timepoint 0, 1.5, 3, 6, 9, 12 hours. The following applies: 5 µM.

Data set [8] in a line: The drug is tested on Eubacterium hallii strain: DSM3353 for biotransformation under anaerobic condition. The drug concentrations were measured over 6 timepoints collected between 0 and 12 hours of incubation by liquid-chromatography-coupled mass spectrometry (LC–MS). Also on record: dose 5 uM, timepoint 0, 1.5, 3, 6, 9, 12 hours. The following applies: anaerobutyricum hallii, 5 µM.

Data set [9] in a line: The drug is tested on Lactobacillus ruminis strain: ATCC25644 for biotransformation under microaerobic condition. The drug concentrations were measured over 6 timepoints collected between 0 and 12 hours of incubation by liquid-chromatography-coupled mass spectrometry (LC–MS). More on the design: dose 5 uM, timepoint 0, 1.5, 3, 6, 9, 12 hours. The following applies: ligilactobacillus ruminis, 5 µM.

Data set [10] in a line: The drug is tested on Bacteroides vulgatus strain: DSM1447 for biotransformation under anaerobic condition. The drug concentrations were measured over 6 timepoints collected between 0 and 12 hours of incubation by liquid-chromatography-coupled mass spectrometry (LC–MS). Also on record: dose 5 uM, timepoint 0, 1.5, 3, 6, 9, 12 hours. The following applies: phocaeicola vulgatus, 5 µM.

Data set [11] in a line: The drug is tested on Eubacterium rectale strain: DSM17629 for biotransformation under anaerobic condition. The drug concentrations were measured over 6 timepoints collected between 0 and 12 hours of incubation by liquid-chromatography-coupled mass spectrometry (LC–MS). More on the design: dose 5 uM, timepoint 0, 1.5, 3, 6, 9, 12 hours. Conditions: agathobacter rectalis, 5 µM.

Data set [12] in a line: The drug is tested on the gut metagenome community of A-06 with ENA study accession number: PRJEB31790 for biotransformation under microaerobic condition. The drug concentrations were measured over 7 timepoints collected between 0 and 12 hours of incubation by liquid-chromatography-coupled mass spectrometry (LC–MS). More on the design: dose 5 uM, timepoint 0, 0.75, 1.5, 3, 6, 9, 12 hours. Conditions: 5 µM.

Data set [13] is described as follows: The drug is tested on the gut metagenome community of P-02 with ENA study accession number: PRJEB31790 for biotransformation under anaerobic condition. The drug concentrations were measured over 7 timepoints collected between 0 and 12 hours of incubation by liquid-chromatography-coupled mass spectrometry (LC–MS). Conditions: 5 µM. More on the design: dose 5 uM, timepoint 0, 0.75, 1.5, 3, 6, 9, 12 hours.

Data set [14] is described as follows: The drug is tested on the gut metagenome community of A-08 with ENA study accession number: PRJEB31790 for biotransformation under microaerobic condition. The drug concentrations were measured over 7 timepoints collected between 0 and 12 hours of incubation by liquid-chromatography-coupled mass spectrometry (LC–MS). More on the design: dose 5 uM, timepoint 0, 0.75, 1.5, 3, 6, 9, 12 hours. Conditions: 5 µM.

The nature of data set [15]: The drug is tested on Eubacterium eligens strain: DSM3376 for biotransformation under anaerobic condition. The drug concentrations were measured over 6 timepoints collected between 0 and 12 hours of incubation by liquid-chromatography-coupled mass spectrometry (LC–MS). Also on record: dose 5 uM, timepoint 0, 1.5, 3, 6, 9, 12 hours. The following applies: lachnospira eligens, 5 µM.

A short description of data set [16]: The drug is tested on the gut metagenome community of A-03 with ENA study accession number: PRJEB31790 for biotransformation under microaerobic condition. The drug concentrations were measured over 7 timepoints collected between 0 and 12 hours of incubation by liquid-chromatography-coupled mass spectrometry (LC–MS). Also on record: dose 5 uM, timepoint 0, 0.75, 1.5, 3, 6, 9, 12 hours. Conditions: 5 µM.

Data set [17] is described as follows: The drug is tested on Bacteroides ovatus strain: ATCC 8483 for biotransformation under anaerobic condition. The drug concentrations were measured over 6 timepoints collected between 0 and 12 hours of incubation by liquid-chromatography-coupled mass spectrometry (LC–MS). More on the design: dose 5 uM, timepoint 0, 1.5, 3, 6, 9, 12 hours. The following applies: 5 µM.

The nature of data set [18]: The drug is tested on Odoribacter splanchnicus strain: DSM20712 for biotransformation under anaerobic condition. The drug concentrations were measured over 6 timepoints collected between 0 and 12 hours of incubation by liquid-chromatography-coupled mass spectrometry (LC–MS). More on the design: dose 5 uM, timepoint 0, 1.5, 3, 6, 9, 12 hours. The following applies: 5 µM.

The nature of data set [19]: The drug is tested on the gut metagenome community of T-05 with ENA study accession number: PRJEB31790 for biotransformation under microaerobic condition. The drug concentrations were measured over 7 timepoints collected between 0 and 12 hours of incubation by liquid-chromatography-coupled mass spectrometry (LC–MS). Also on record: dose 5 uM, timepoint 0, 0.75, 1.5, 3, 6, 9, 12 hours. The following applies: 5 µM.

Data set [20] in a line: The drug is tested on the gut metagenome community of P-03 with ENA study accession number: PRJEB31790 for biotransformation under anaerobic condition. The drug concentrations were measured over 7 timepoints collected between 0 and 12 hours of incubation by liquid-chromatography-coupled mass spectrometry (LC–MS). More on the design: dose 5 uM, timepoint 0, 0.75, 1.5, 3, 6, 9, 12 hours. The following applies: 5 µM.

The nature of data set [21]: The drug is tested on the gut metagenome community of A-08 with ENA study accession number: PRJEB31790 for biotransformation under anaerobic condition. The drug concentrations were measured over 7 timepoints collected between 0 and 12 hours of incubation by liquid-chromatography-coupled mass spectrometry (LC–MS). Also on record: dose 5 uM, timepoint 0, 0.75, 1.5, 3, 6, 9, 12 hours. Conditions: 5 µM.

Data set [22] in a line: The drug is tested on Alloscardovia omnicolens strain: DSM21503 for biotransformation under anaerobic condition. The drug concentrations were measured over 6 timepoints collected between 0 and 12 hours of incubation by liquid-chromatography-coupled mass spectrometry (LC–MS). More on the design: dose 5 uM, timepoint 0, 1.5, 3, 6, 9, 12 hours. Conditions: 5 µM.
Data set [23] is described as follows: The drug is tested on Enterococcus faecalis strain: ATCC29212 for biotransformation under anaerobic condition. The drug concentrations were measured over 6 timepoints collected between 0 and 12 hours of incubation by liquid-chromatography-coupled mass spectrometry (LC–MS). More on the design: dose 5 uM, timepoint 0, 1.5, 3, 6, 9, 12 hours. Conditions: 5 µM.

Data set [24] can be described thus: The drug is tested on the gut metagenome community of T-05 with ENA study accession number: PRJEB31790 for biotransformation under anaerobic condition. The drug concentrations were measured over 7 timepoints collected between 0 and 12 hours of incubation by liquid-chromatography-coupled mass spectrometry (LC–MS). More on the design: dose 5 uM, timepoint 0, 0.75, 1.5, 3, 6, 9, 12 hours. Conditions: 5 µM.

For `CCOC(=O)[C@H](CCc1ccccc1)N[C@@H](C)C(=O)N1[C@H](C(=O)O)C[C@@H]2CCC[C@@H]21`, the “Bacterial Biotransformation” value in data set [1], in data set [2], in [3], in [4], in data set [5] and in data set [6] was “Compound NOT metabolized” each time. The “Bacterial Biotransformation” value in data set [7], in data set [8], in [9], in data set [10], in data set [11] and in [12] was “Compound NOT metabolized” in each case. Besides, the “Bacterial Biotransformation” value in data set [13], in data set [14], in data set [15], in data set [16], in data set [17] and in data set [18] was “Compound NOT metabolized” each time. Moreover, the “Bacterial Biotransformation” value in data set [19], in data set [20], in data set [21], in data set [22], in data set [23] and in data set [24] was “Compound NOT metabolized” throughout.

Consider `CCOC(=O)C1=C(COCCN)NC(C)=C(C(=O)OC)C1c1ccccc1Cl` (configuration not stated) [AMLODIPINE], for which the “Bacterial Biotransformation” value in data set [1], in data set [2], in data set [3], in data set [4], in data set [5] and in data set [6] was “Compound NOT metabolized” in each case. Besides, the “Bacterial Biotransformation” value was “Compound metabolized” in data set [7]; “Compound NOT metabolized” in data set [8]; “Compound NOT metabolized” in data set [9]; “Compound NOT metabolized” in data set [10]; “Compound NOT metabolized” in data set [11]; “Compound NOT metabolized” in data set [12]. Further, the “Bacterial Biotransformation” value is “Compound NOT metabolized” in data set [13]; “Compound NOT metabolized” in data set [14]; “Compound NOT metabolized” in [15]; “Compound NOT metabolized” in data set [16]; “Compound NOT metabolized” in [17]; “Compound metabolized” in data set [18]. The “Bacterial Biotransformation” value in [19], in data set [20], in data set [21], in data set [22], in data set [23] and in [24] was “Compound NOT metabolized” each time.

Take `CC(C)NCC(O)COc1ccc(CC(N)=O)cc1` (configuration not stated) [ATENOLOL]: the “Bacterial Biotransformation” value in data set [1], in data set [2], in data set [3], in data set [4], in data set [5] and in data set [6] was “Compound NOT metabolized” each time. The “Bacterial Biotransformation” value in [7], in data set [8], in data set [9], in data set [10], in data set [11] and in [12] was “Compound NOT metabolized” throughout. For the same compound, the “Bacterial Biotransformation” value in data set [13], in data set [14], in data set [15], in data set [16], in data set [17] and in data set [18] was “Compound NOT metabolized” in each case. Moreover, the “Bacterial Biotransformation” value in data set [19], in data set [20], in data set [21], in [22], in [23] and in data set [24] was “Compound NOT metabolized” throughout.
